Assay results reported in patent US20110144281A1, “AMPHIPHILIC POLYMERS HAVING A CHOLANE CORE” (VALORISATION-RECHERCHE, SOCIETE EN COMMANDITE, priority 2007, published 2011).

Key:
[1] = Loading of a drug: solubilisation of ibuprofen in water; type: physicochemical; settings: after vigorous agitation
[2] = TEM of aggregates (freeze-fracture etching); type: physicochemical; settings: TEM images; sodium cholate at 0.040 molal, CA-PEG4 above CAC
Procedure: For transmission electron microscopy (TEM), different sample concentrations were prepared in milli-Q water for freeze-fracture. A small amount of these solutions were dropped onto a good sample carrier, and then frozen in liquid propane. The frozen samples were then mounted on the sample holder of a BAL-TEC freeze etching instrument (model BAF060). Samples were then fractured, let sublimate for less than 30 seconds before the newly created surface was coated from an angle of 45° (shadowed) with 2 nm of platinum-doped carbon. A 10 nm layer of carbon was then applied perpendicularly. The samples were placed in distilled water to make the platinum-carbon replica float on the water surface. They were then deposited on carbon-coated copper grids. The replicas were examined on a JEOL JEM-2000FX TEM operating at an acceleration voltage of 80 kV.
TEM images of the star polymers shown in FIG. 8 provide unequivocal evidence for the formation of micellar aggregates.

[3] = literature (Reis et al. 2004); cited from earlier work

solubility in neutral water [1]	shape of aggregates [2]	Structure (SMILES)	CAC of sodium cholate [3] [millimolal]
very limited	–	CC(C)Cc1ccc(C(C)C(=O)O)cc1 (stereo not drawn) [Ibuprofen]	–
–	cylindrical	C[C@H](CCC(=O)[O-])[C@H]1CC[C@H]2[C@@H]3[C@H](O)C[C@@H]4C[C@H](O)CC[C@]4(C)[C@H]3C[C@H](O)[C@]12C.[Na+] [sodium cholate]	8
